Laboratory results: patent US20060088545A1, “Use of inhibitors of the protease of the human immunodeficiency virus (hiv) to block cell migration and/or invasion, tissue infiltration and oedema for the therary of diseases associated therewith” (priority 2001, published 2006)

Columns and labels:
[1] = tested on: primary macrovascular (umbilical vein) endothelial cells (HUVEC); experiment: Proliferation assay of HUVEC, basal or bFGF-induced; type: cell-based, human; conditions: for basal or bFGF-induced proliferation (number of cells): 0.1, 1 or 10 μM, 5 days, bFGF 10 ng/ml
Experimental: Human endothelial cells from the umbilical vein (HUVEC, Blo-Whittaker, Verviers, Belgium) were plated in triplicate (1.5×10^4 cells/well) in plates of 12 wells previously covered with gelatine. The next day the cells were incubated for 4 hours in a medium without serum and cultivated in RPMI 1640 medium (Life Technologies, Eragny, France) with the addition of 10% of foetal bovine serum (FBS) together with bFGF in PBS buffer (10 ng/ml) or PBS buffer alone.
The concentrations of HIV-PI used were the same as those present in plasma of treated patients (Deeks et al., 1997).

[2] = tested on: lesions promoted by bFGF and HIV-1 Tat combined; experiment: KS-like lesions promoted by bFGF and HIV-1 Tat combined in nude mice; type: in vivo; conditions: bFGF 1 μg + Tat 10 μg
Source text: Here are listed the number (N.) of mice that developed lesions with respect to the number (N.) of mice inoculated, and the percentage (%) of mice that developed lesions.

[3] = tested on: T cell leukaemia (Jurkat) cells; experiment: Tumour lesions induced by Jurkat cells in nude mice; type: in vivo; conditions: 20×10^6 cells/site; daily treatment
Experimental: The treatment with HIV-PI or saline solution continued until sacrifice. The size of the lesions present at the injection site was evaluated daily by caliper measurement. External lesion area was then calculated as the product of the two major lesion diameters. The mean size (cm^2) of the lesions present at the injection site is shown.
To determine whether HIV-PI could inhibit the growth of malignant solid and lymphoid tumours, nude mice were inoculated with hepato-carcinoma cells (SK-Hep-1), lung carcinoma cells (A549), breast adeno-carcinoma cells (MDA-MB-468), myelo-monocytic leukaemia cells (U937), and T lymhocytic leukaemia cells (Jurkat).

KS cells = experiment: KS cell migration, Boyden chamber, bFGF chemo-attractant; type: cell-based, human; conditions: 0.01 μM-1 μM, 5 days
Experimental: In contrast, both drugs inhibited KS cell capability of invading a matrigel substrate in a dose-dependent manner. In particular, both HIV-PI inhibit the invasion of KS cells by 30-40% (p<0.05) (Table 4 and FIG. 13).
Migration and invasion assays were carried out essentially as detailed in the key to FIGS. 2 and 3.

[4] = tested on: bFGF-induced angiogenic KS-like lesions; experiment: bFGF-induced angiogenic KS-like lesions in nude mice; type: in vivo; conditions: for No. of mice with macroscopic vascular lesions/No. of inoculated mice / mice with macroscopic vascular lesions (%): bFGF 1 μg in matrigel, indinavir 1.4 mg/day or saquinavir 1 mg/day, intragastric gavage, 7 days; for Tissue staining (area % ± SD) CD31 / Tissue staining (area % ± SD) FVIII-RA: bFGF 1 μg, lesional area stained
Experimental: The mice were then inoculated with bFGF (1 μg) or with its diluting buffer in the presence of matrigel (Kleiner et al., 1993; Ensoli et al., 1994a; Samaniego et al., 1998; Barillari et al., 1999a).
The mice were then sacrificed and the inoculation areas examined both macroscopically and microscopically for the presence of KS-like angioproliferative lesions (Kleiner et al., 1993; Ensoli et al., 1994a; Samaniego et al., 1998; Barillari et al., 1999a).
At the time of sacrifice, the inoculation sites were examined to check for the presence of macroscopic angioproliferative lesions and analyzed microscopically after haematoxilin & eosin (H&E) staining or frozen for histochemical analysis of endothelial the cell markers FVIII-RA and CD31. Here are listed the number (No.) of mice that developed lesions with respect to the number (No.) of mice inoculated, and the percentage (%) of mice that developed lesions. […] Angiogenesis was quantitated by determining the tissue area stained for FVIII-RA or CD31. Shown are the percentages [mean±standard deviations (SD)] of lesional area stained for FVIII-RA or CD31 that were quantitated as described below.
These doses correspond, respectively, to the whole dose, double or half the dose of HIV-PI used daily in patients infected with HIV (Deeks et al., 1997). […] The control animals were treated with the same volume of saline solution. On the third day the mice were inoculated subcutaneously at the level of the lower dorsal quadrant with 1 μg of recombinant bFGF (Roche, Mannheim, Germany) diluted in 0.2 ml of phosphate buffer (PBS)-0.1% bovine […] albumin (BSA) or with its re-suspending buffer, mixed with 0.2 ml of Matrigel (Collaborative Biomedical Products, Bedford, Mass.) prior to inoculation, as described previously (Ensoli et al., 1994a). Four days later the mice were sacrificed, the inoculation sites were examined to check for the presence of macroscopic KS-like angioproliferative lesions, and sections of tissue histologically examined after staining with H&E. For immunohistochemical analysis, frozen tissue sections were fixed with cold acetone and stained with rabbit anti-human FVIII-RA polyclonal antibodies (Ab) (Dako, Glostrup, Denmark; 1:2000 dilution) or anti-mouse CD31 rat monoclonal Ab (BD Biosciences; 1:1000 dilution). Digital images (200× magnification) were captured by a color CCD camera (Zeiss) and analyzed by acquiring 4-9 microscopic fields (about 0.15 mm^2 per field) corresponding to the whole histologic sections. Staining was quantitated by the KS300 (Zeiss) image analysis software and expressed as the percentage of positive area over the total tissue area.

[5] = tested on: angioproliferative KS-like lesions induced by KS cells; experiment: KS-like lesions induced by inoculation of KS cells in nude mice (drug pre-treatment); type: in vivo; conditions: KS cells 3×10^6; treatment starting 2 days before cell inoculation
Source text: At the time of sacrifice, the sites of inoculation were examined to check for the presence of macroscopic angioproliferative lesions as described in the key to FIG. 12 and Table 5.
These angioproliferative lesions are transient, of murine origin and are developed in response to cytokines, such as bFGF and VEGF, IL-1, IL-6 and others, released by the KS cells (Ensoli et al., 1989; Ensoli et al., 1994a; Ensoli et al., 1994b; Fiorelli et al., 1995; Samaniego et al., 1995; Samaniego et al., 1997; Sgadari et al., 2000). In fact, at least in initial phase, KS is a reactive angioproliferative diseases and not a true neoplasm (Ensoli and Sturzl, 1998).
At the time of sacrifice, the sites of inoculation were examined to check for the presence of macroscopic angioproliferative KS-like lesions as described in the key to Table 1. Here are listed the number (No.) of mice that developed lesions with respect to the number (No.) of mice inoculated, and the percentage (%) of mice that developed lesions.

Structure (SMILES)	survival of macrovascular endothelial cells [1]	basal or bFGF-induced proliferation (number of cells) [1]	No. of macroscopic vascular lesions/No. of mice injected [2]	mice that developed lesions (%) [2]	development of tumour lesions (lesion size) [3]	migration of KS cells (KS cells)	No. of mice with macroscopic vascular lesions/No. of inoculated mice [4]	mice with macroscopic vascular lesions (%) [4]	Tissue staining (area % ± SD) CD31 [4]	Tissue staining (area % ± SD) FVIII-RA [4]	No. of mice with macroscopic lesions/No. of inoculated mice [5]	mice with macroscopic lesions (%) [5]	angiogenesis and infiltration of the cells, microscopic examination of the inoculation sites ([4]; in comparison with mice inoculated with bFGF and not treated)
CC(C)(C)NC(=O)[C@@H]1C[C@@H]2CCCC[C@@H]2CN1C[C@@H](O)[C@H](Cc1ccccc1)NC(=O)[C@H](CC(N)=O)NC(=O)c1ccc2ccccc2n1 [Saquinavir, saquinavir]	no effect	no effect	2/10	20%	inhibit	neither indinavir nor saquinavir had any effect	7/28	25%	0.83 ± 0.3%	1.13 ± 0.6%	4/16	25%	
CC(C)(C)NC(=O)[C@@H]1CN(Cc2cccnc2)CCN1C[C@@H](O)C[C@@H](Cc1ccccc1)C(=O)N[C@H]1c2ccccc2C[C@H]1O [Indinavir, indinavir]	no effect	no effect	5/10	50%	inhibit	neither indinavir nor saquinavir had any effect	8/28	28%	1.00 ± 0.6%	1.32 ± 1.2%	7/16	43%	marked reduction
